Measured values as given in US9173915B1, “Antioxidant eye drops” (priority 2014, dated 2015).
Like-named read-outs stand apart in the source and are kept apart here.

What was measured:
[1] = system: neural retina oxidative stress / photoreceptor layer; experiment: Light-induced retinal degeneration in dark adapted rats; format: in vivo, Wistar rats
Description: In the neural retina of dark adapted rats, exposure to light also results in the generation of ROS, iron dysregulation, and the release of iron from ferritin. In this animal model of age-related macular degeneration (AMD), Wistar rats were either orally treated with diet containing 0.05% of the multifunctional antioxidant JHX-4 or topically treated b.i.d. with Optixcare EH, with treatment beginning at the onset of two weeks of dark adaption.
As previously described in detail by Randazzo et al. (PLoS One, 2011, 6(7), p. e21926), groups containing twelve 4-5-week-old male Wistar rats receiving either normal rat chow (untreated), normal rat chow and topically treated with Optixcare EH b.i.d., or oral diet containing 0.05% of the multifunctional antioxidant JHX-4 were dark adapted for two weeks. Rats from each group were then individually placed into acrylic, flat bottom rodent restraints (Plas-labs, Inc., Lansing Mich.) in a light box apparatus and exposed for three hours to 1000 1× of cool white fluorescent lights (Lights of America, Los Angeles, Calif.). An additional group of non-treated rats were also placed into the light box apparatus for three hours, but not exposed to light (non-light-damaged rats, NLD). Immediately following light exposure, 8 light-damaged (LD) rats from each group and 8 NLD rats were immediately euthanized and the neural retinas were carefully dissected from the enucleated eye and frozen on dry ice for subsequent analysis. Subsequently, the thawed retinas were homogenized in lysis buffer for ELISA determinations using 4-HNE-His Adduct and Nitrotyrosine ELISA Kits. Additional thawed retinas were homogenized in RIPA buffer containing Halt Protease and Phosphatase Inhibitor Cocktail for western blot analysis of thioredoxin (TRx) and thioredoxin reductase (TRxR) expression levels. Protein samples were separated by SDS-PAGE and transferred onto nitrocellulose membranes. After blocking the membrane with 5% dry milk in 0.1% TBS-T, the membranes were then incubated overnight at 4° C. with the primary antibodies anti-TRx (1:1000 dilution) or anti-TRxR (1:2000 dilution). Subsequently, after washing with TBS-T, the membranes were incubated with a HRP-conjugated secondary antibody for 1 hour. The protein bands were visualized by chemiluminescence and exposure to x-ray film. Finally, the membranes were re-probed with antibody against GAPDH as an internal control. All visualized protein levels were quantified using the NIH ImageJ program available online at rsbweb.nih.gov/ij/.
Therefore, topical administration of Optixcare EH to light-exposed dark-adapted rats was not anticipated to result in any significant protection of retinal oxidative stress compared to the oral administration of the multifunctional antioxidant JHX-4. […] ROS and free radicals generated by retinal exposure to acute excessive light are also mediated by the thioredoxin (TRx)/thioredoxin reductase (TRxR) defense system. Therefore, the expression levels of both TRx and TRxR in the neural retinas of these rats were also examined.
The reduction of oxidative stress by JHX-4 and Optixcare EH was confirmed by histological measurements of the photoreceptor layers. After light exposure as described above, select rats in each group were returned to the dark environment for 7 additional days. Each rat was then euthanized by carbon dioxide asphyxiation, and the dorsal ventral orientation of each eye was marked with a cautery tool. […]

[2] = system: lens oxidative stress after UV irradiation; experiment: UV-induced cataract model: lens GSH and 4-HNE after UV irradiation; format: in vivo, Sprague Dawley rats
Description: Exposure to UV irradiation is another major risk factor of cataractogenesis. UV-irradiation induces ROS, which results in a rapid loss of reduced lens gluthione (GSH), the major antioxidant in the lens, followed several weeks later by subsequent lens opacification. For this study, young female Sprague Dawley rats were divided into five equal groups. One group served as the non-irradiated control group, while the second group served as the untreated irradiated control group. The third group received topical Optixcare carbomer vehicle containing 3% JHX-4 (4-(5-hydroxypyrimidin-2-yl)-N,N-dimethyl-3,5-dioxopiperazine-1-sulfonamide (99% pure by HPLC), the fourth received the present antioxidant eye drops composition, prepared as described above and referred to as topical Optixcare EH, and the fifth group received 1 mL of the oral Ocu-GLO™ by gavage, as described above. Treatments began 3 days prior to irradiation and continued until termination of the experiment. Prior to irradiation, each rat was anesthetized by intraperitoneal (i.p.) injection of a mixture of 60 mg/kg of ketamine and 10 mg/kg of xylazine, and the right eye was dilated with 1% tropicamide ophthalmic solution. The contralateral eye was covered with an eye patch that was held in place with black tape. […] Protein levels in an aliquot of the supernatant were measured according to Bradford Assay. Another aliquot was deproteinized with equal volume of 20% TCA and the GSH levels in the deproteinized supernatants were measured at 412 nm according to the DTNB method.
To confirm that the reduced GSH levels after UV exposure were linked to increased levels of ROS, the lenticular levels of the oxidized membrane lipid 4-hydroxynonenol (4-HNE) were determined using a competitive ELISA in the remaining homogenate supernatants by using the OxiSelect HINE Adduct Competitive ELISA Assay Kit (Cell Biolabs, Inc., San Diego, Calif.) according to the manufacturer's instructions.

human RPE19 cells = system: human RPE19 cells; parameters: unit of the concentration uncertain; settings: cited from earlier work
[3] = after 3 hours light exposure, ELISA

Row | Structure (SMILES) | photoreceptor layer (outer nuclear layer thickness), histology ([1]; 7 days in the dark after light exposure) | 4-HNE-histidine adduct levels in the neural retina (FIG. 5A) [1, 3] | nitrotyrosine adduct levels in the neural retina (FIG. 5B) [1, 3] | expression of thioredoxin (TRx) in the neural retina (FIG. 6A) ([1]; light exposed rats, western blot) | expression of thioredoxin reductase (TRxR) in the neural retina (FIG. 6B) ([1]; light exposed rats, western blot, p<0.05) | lenticular 4-HNE levels vs untreated rats exposed to UV irradiation (FIG. 4) ([2]; UV exposed lenses, competitive ELISA) | 4-HNE lens levels, UV exposed vs unexposed contralateral eyes ([2]; competitive ELISA) | lens GSH levels, UV irradiated eye vs unexposed contralateral lens (FIG. 3) ([2]; pretreated 3 days, two days after 15 minutes UV irradiation) | reduction of in vitro proliferation of human RPE19 cells (human RPE19 cells; 50 (unit uncertain)) [%] | reduction of in vitro proliferation of human RPE19 cells (human RPE19 cells; 100 (unit uncertain)) [%]
1 | CN(C)S(=O)(=O)N1CC(=O)N(c2ncc(O)cn2)C(=O)C1 [JHX-4, 4-(5-hydroxypyrimidin-2-yl)-N,N-dimethyl-3,5-dioxopiperazine-1-sulfonamide] | only slightly decreased | neither oxidative marker significantly increased | neither oxidative marker significantly increased | reduced | significantly lowered | significantly lower | statistically similar | not significantly lower |  | 
2 | Oc1ccc(C=Cc2cc(O)cc(O)c2)cc1 [resveratrol] |  |  |  |  |  |  |  |  | 10 | 25
